Results published in patent publication US8722649B2, “Alpha-chloro and alpha-bromo phosphonate analogs of lysophosphatidic acid and methods of making and using thereof” (University of Utah Research Foundation, priority 2007, dated 2014).

Assays:
PPARγ = target: T1, PPARγ (Homo sapiens, UniProt P37231); test: PPARγ activation assay (PPRE-Acox-Rluc reporter in CV-1 cells); assay type: cell-based; conditions: 10 μM test analogue, 20 h
T1 construct: expressed in transfected cells; host or cells: CV-1 cells, transient (LipofectAMINE 2000)
T1 sequence (P37231 1-505): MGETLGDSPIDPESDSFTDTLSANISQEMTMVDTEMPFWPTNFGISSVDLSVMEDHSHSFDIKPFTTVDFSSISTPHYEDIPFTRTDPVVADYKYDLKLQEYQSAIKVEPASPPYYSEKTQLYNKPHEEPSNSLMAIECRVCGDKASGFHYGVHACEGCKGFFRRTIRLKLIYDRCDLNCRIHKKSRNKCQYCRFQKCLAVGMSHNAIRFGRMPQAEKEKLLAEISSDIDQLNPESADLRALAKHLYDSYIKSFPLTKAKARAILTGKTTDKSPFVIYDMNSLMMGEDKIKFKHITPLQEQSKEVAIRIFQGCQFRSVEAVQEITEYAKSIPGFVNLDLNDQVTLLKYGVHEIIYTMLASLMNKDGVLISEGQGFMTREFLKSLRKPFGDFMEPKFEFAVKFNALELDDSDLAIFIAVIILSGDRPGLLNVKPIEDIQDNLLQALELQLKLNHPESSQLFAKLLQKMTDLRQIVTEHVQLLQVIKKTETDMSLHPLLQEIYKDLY
Procedure: PPARγ activation assay. PPARγ activation was performed using CV-1 cells transfected with an acyl-coenzyme A oxidase-luciferase (PPRE-Acox-Rluc) reporter gene construct as previously reported. Briefly, CV-1 cells were plated in 96-well plates at a density of 1×10^4 cells per well in Dulbecco's modified Eagle's medium supplemented with 10% fetal bovine serum. The next day, the cells were transiently transfected with 125 ng of pGL3-PPRE-Acox-Rluc, 62.5 ng of pcDNA3.1 PPARγ, and 12.5 ng of pSV-β-galactosidase (Promega) using LipofectAMINE 2000 (Invitrogen). Twenty-four hours after transfection, cells were treated with OptiMEM (Invitrogen) containing 10 μM Rosiglitazone or 10 μM of the test analogue dissolved in DMSO for 20 h. Luciferase and β-galactosidase activities were measured with Steady-Glo® Luciferase Assay System (Promega) and the Galacto-Light Plus™ system (Applied Biosystems), respectively. Samples were run in quadruplicate and the mean ±standard errors were calculated. Data are representative of at least two independent transfections.

recombinant ATX-HA = target: T2, recombinant ATX-HA (Homo sapiens, UniProt Q13822); test: Autotaxin assay (FS-3 hydrolysis); assay type: biochemical; conditions: 10.0 μM; FS-3 substrate; preliminary single-dose screen
T2 construct: HA
Procedure: Autotaxin Assay. This assay utilizes FS-3 (Echelon Biosciences, Inc. Salt Lake City, Utah) as substrate and recombinant ATX-HA. For analysis, 50 μl of ATX-HA (0.25 μg) in assay buffer (Tris 50 mM, NaCl 140 mM, KCl 5mM, CaCl2 1 mM, MgCl2 1 mM, pH 8.0) was mixed with 25 μl of FS-3 (1 μM final concentration in assay buffer) and 25 μl of test compound dissolved in assay buffer containing 1:1.5 bovine serum albumin in 96-well plate. FS-3 fluorescence was monitored using FLEXstation fluorescence plate reader at a time zero and after 2 hours of incubation at 37° C. at excitation and emission wavelengths of 485 nm and 538 nm, respectively. Data was normalized to the corresponding vehicle control and the mean±standard deviation of triplicate wells were expressed as percent ATX inhibition. IC50, and Ki values were calculated as described.

human LPA1 = target: T3, human LPA1 (Homo sapiens, UniProt Q92633); test: Ca2+ mobilization assay, LPA1; assay type: cell-based
T3 construct: expressed in transfected cells
Procedure: Receptor activation using Ca^2+ mobilization assay for diastereomers of 1 (also represented as 19b). The rat hepatoma (RH7777) cell lines individually expressing either LPA1, LPA2, LPA3 or LPA5 receptors and Chinese hamster ovary (CHO) cell line were analyzed to examine agonism and antagonism. […] CHO cells stably expressing either vector or LPA4 were kindly gifted from Dr. Shimizu (University of Tokyo, Tokyo, Japan).
Stable transformants of LPA1/2/3 receptors. RH7777 cells stably expressing each receptor were plated onto poly-L-lysine (PLL) (0.1 mg/mL)-coated black-wall clear-bottom 96-well plates (Corning Incorporated Life Sciences, Acton, Mass.) at a density of 5×10^4 cells/well and cultured overnight. The following day, the culture medium was replaced with modified Krebs buffer (120 mM NaCl, 5 mM KCl, 0.62 mM MgSO4, 1.8 mM CaCl2, 10 mM HEPES, 6 mM glucose, pH 7.4), and the cells were serum starved for 6 h. Subsequently, cells were loaded with Fura-2 AM (Invitrogen, Carlsbad, Calif.) for 35 min in modified Krebs buffer containing 2% (v/v) pluronic acid.
After incubating the cells with Fura-2 AM, the cells were rinsed with Krebs buffer and changes in the intracellular Ca^2+ concentration were monitored by determining the ratio of emitted light intensities at 520 nm in response to excitation at 340 and 380 nm using FLEXstation II (Molecular Devices, Sunnyvale, Calif.). Each well was monitored for 80-120 sec. For testing agonist activity of the compounds, the test compounds were added automatically after 15 sec of baseline measurement. To determine antagonist properties, varying concentrations of the compounds were mixed with a constant concentration of LPA and responses were monitored. Each test was performed in quadruplicate. EC50, IC50, and Ki values were calculated by fitting a sigmoid function to data points with the nonlinear curve-fitting feature of KaleidaGraph (Synergy Software, Essex Junction, Vt.).
Receptor activation using Ca^2+ mobilization assay. The assay for mobilization of intracellular Ca^2+ was performed as described. Briefly, rat hepatoma RH7777 cells stably expressing human LPA1, LPA2, or LPA3, and CHO cells stably expressing LPA4, were loaded with Fura-2 AM (Molecular Probes). Using a FLEXStation (Molecular Devices, Sunnyvale, Calif.), changes in intracellular Ca^2+ concentration were monitored. Ligand-induced changes in fluorescence were monitored for 80-120 seconds. Ca^2+ transients were quantified automatically by calculating the difference between maximum and baseline ratio values for each sample. To determine antagonist properties, different concentrations of each analogue were mixed with either palmitoyl (16:0) or oleoyl (18:1) LPA (200 nM for LPA1 and LPA3, 10 nM for LPA2, and 400 nM for LPA4) (Avanti Polar Lipids, Inc., […], Ala.) and responses were recorded. Each test was performed in quadruplicate. EC50, IC50, and Ki values were calculated as described. The ligand properties of the compounds were evaluated using Ca^2+ mobilization assay for assessing the activation/inhibition of LPA1, LPA2, and LPA3 expressed in RH7777 cells and LPA4 expressed in CHO cells. Table l illustrates calcium responses elicited through the activation of human LPA1, LPA2, LPA3 and LPA4 receptors. These cell lines have been used extensively for the characterization of LPA GPCR ligands because RH7777 cells are intrinsically unresponsive to LPA and CHO cells show minimal endogenous responses to LPA unless transfected with LPA4.

MDA-MB-231 cells = test: Orthotopic breast cancer xenograft; assay type: in vivo, nude mice
Procedure: Orthotopic Human Breast Cancer Models. 4-week-old female athymic nude mice (Charles River Laboratories) were anesthetized by intraperitoneal injection of ketamine (80 mg/kg) and xylazine (10 mg/kg),according to the protocol approved by the University of Utah Institutional Animal Care and Use Committee (IACUC). Then the thoracic skin was sterilized with iodine and alcohol swabs.
MDA-MB-231 were trypsinized and resuspended in 2.5% CMHA-S and 3% gelatin-DTPH (v:v=1:1). Then, one volume of 4% PEGDA solution was added to four volumes of the cell suspension, and the resulting suspension was mixed gently by vortexing. The final cell concentration was 5×10^7 cells/ml. When the cell suspension was becoming viscous (ca. 3-5 min at 20° C.), 200 uL of gel was injected subcutaneously into the fourth mammary fat pad of each mouse, using a total of six mice per group.
The assessment of chemotherapy on breast cancer. The mice were randomly divided into 4 groups, including control (physiological saline), paclitaxel, LPA antagonist (19b), and paclitaxel followed by 19b. Six mice for each cell line were necessary to get statistically significant results according to literature. The control group received physiological saline i.p. injection twice per week starting at two weeks after the cell transplantation and ending at two weeks after the treatment. The treatment groups received i.p. administration of paclitaxel (10 mg/kg/day) or 19b (10 mg/kg/day) twice per week with the same period of control group. One additional group included 2 dose of paclitaxel followed by 2 dose of 19b with the same period of control group. The treatment was received […] twice per week for 2 weeks total.
The body weight and tumor size were measured twice per week, and general clinical status of the animals was also assessed every day. Perpendicular tumor diameters were measured using a vernier scale caliper and tumor volume estimated using the formula for ellipsoid: […] (mm^3)=[width(mm)^2×length(mm)]/2. Data are expressed as median tumor areas with interquartile ranges.
Animals were euthanized at 4 weeks postinjection or once any signs of broken skin caused by the extension of tumor are found. Tumors were excised with surrounding tissues for histological evaluation. Analysis of variance was used to analyze the statistical difference on tumor growth between different groups. The results are in FIG. 8, where it is shown that the volume of the tumors is the lowest when mice were treated with paclitaxel followed by the administration of 19b.
Xenograft establishment and chemotherapy. […] The tumor sizes were measured and calculated by formula: tumor size (mm^3)=[width (mm)]^2×[length (mm)]/2. […]

T3 sequence (Q92633 whole entry): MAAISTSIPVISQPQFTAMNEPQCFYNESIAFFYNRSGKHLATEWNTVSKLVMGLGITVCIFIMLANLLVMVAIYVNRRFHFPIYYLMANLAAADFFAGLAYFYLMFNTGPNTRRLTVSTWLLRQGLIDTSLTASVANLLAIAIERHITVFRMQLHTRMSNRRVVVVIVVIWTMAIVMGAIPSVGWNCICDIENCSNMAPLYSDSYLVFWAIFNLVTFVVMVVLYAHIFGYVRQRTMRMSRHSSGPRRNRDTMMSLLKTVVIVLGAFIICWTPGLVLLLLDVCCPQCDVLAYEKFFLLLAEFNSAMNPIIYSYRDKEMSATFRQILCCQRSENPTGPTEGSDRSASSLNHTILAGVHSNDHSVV

Row | SMILES | PPARγ (PPRE luciferase reporter gene assay) (PPARγ) | Inhibition (%) of autotaxin (ATX) phosphodiesterase activity (recombinant ATX-HA) | EC50 (human LPA1; RH7777 cells stably expressing LPA1, agonist mode) | IC50 (human LPA1; antagonist mode vs 200 nM LPA, PA = partial antagonist, read-out: LPA1 IC50) | tumor blood vessel density / angiogenesis (CD31), single agent (MDA-MB-231 cells; 10 mg/kg i.p.) | tumor size, single agent (MDA-MB-231 cells; 10 mg/kg i.p. twice per week for two weeks)
1 | CCCCCCCC/C=C\CCCCCCCC(=O)OC[C@@H](O)COP(=O)(O)O [LPA (18:1), reference compound] | Ago- | 88.4 ± 1.3% | 0.1 ± 0.0132 µM | > 30 µM | – | –
2 | CC(=O)O[C@H]1C(=O)[C@@]2(C)[C@H]([C@H](OC(=O)c3ccccc3)[C@]3(O)C[C@H](OC(=O)[C@H](O)[C@@H](NC(=O)c4ccccc4)c4ccccc4)C(C)=C1C3(C)C)[C@]1(OC(C)=O)CO[C@@H]1C[C@@H]2O [Taxol, reference compound] | – | – | – | – | statistically different from the control | reduction of tumor size
